pKd: −log10 of the molar value. Read-outs that look alike come from different tables or passages of the source. Where no end group is shown, it is not given here.
Columns and labels:
K^b [1] = target: T1, K^b (Mus musculus, UniProt P01901); experiment: biochemical; format: binding
T1 construct: Soluble K^b was purified from transfected Drosophila cells; made in house; host or cells: transfected Drosophila cells
T1 sequence (P01901 22-305 limits assumed): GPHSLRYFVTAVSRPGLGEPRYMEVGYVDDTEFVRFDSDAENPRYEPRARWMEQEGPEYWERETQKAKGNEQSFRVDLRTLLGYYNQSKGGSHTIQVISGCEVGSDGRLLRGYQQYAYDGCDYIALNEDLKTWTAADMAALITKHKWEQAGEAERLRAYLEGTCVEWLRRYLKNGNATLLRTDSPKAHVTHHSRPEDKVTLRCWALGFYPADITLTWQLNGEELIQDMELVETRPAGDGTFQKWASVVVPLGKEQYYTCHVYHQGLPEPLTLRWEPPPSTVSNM
T1 sequence (P01887 21-119 partner): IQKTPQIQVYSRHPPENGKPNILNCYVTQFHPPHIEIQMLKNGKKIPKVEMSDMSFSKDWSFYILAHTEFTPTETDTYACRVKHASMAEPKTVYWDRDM

[2] = target: T2, K^b on the surface of K^b transfected drosophila cells (Mus musculus, UniProt P01901); experiment: FACS analysis of stabilization of cell surface K^b by peptides; format: cell-based
T2 construct: expressed in transfected cells; host or cells: Drosophila cells transfected with K^b
T2 sequence (P01901 22-369): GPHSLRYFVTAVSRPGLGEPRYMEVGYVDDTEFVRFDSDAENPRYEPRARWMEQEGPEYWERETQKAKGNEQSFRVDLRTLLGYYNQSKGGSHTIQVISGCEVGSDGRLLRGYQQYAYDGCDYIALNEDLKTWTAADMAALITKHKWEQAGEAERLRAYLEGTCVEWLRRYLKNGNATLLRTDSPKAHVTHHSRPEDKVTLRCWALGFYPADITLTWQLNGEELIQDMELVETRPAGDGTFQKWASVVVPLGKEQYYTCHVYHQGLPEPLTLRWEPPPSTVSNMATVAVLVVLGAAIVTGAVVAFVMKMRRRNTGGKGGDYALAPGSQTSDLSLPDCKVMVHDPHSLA
T2 sequence (P01887 21-119 partner): T1 sequence (P01887 21-119 partner)
Protocol: FACS Analysis. Values from fluorescence activated cell sorter (FACS) analysis showing the relative amounts of K^b on the surface of K^b transfected drosophila cells following an 18-hour incubation with the indicated peptides. […] Median fluorescence values from separate experiments were normalized by subtracting the median fluorescence obtained in the absence of added peptides from each peptide sample and then expressing those values as the percent of the fluorescence obtained with […] (which was examined in all experiments). Peptide binding was also analyzed by the ability to stabilize cell surface K^b molecules. Empty class I molecules are thermolabile, but they can be stabilized by binding appropriate peptides. Peptides were bound to K^b molecules expressed on the surfaces of K^b transfected Drosophila cells. Their relative binding strengths are indicated by their median fluorescence.

K^b [3] = target: T1, K^b; details: known immunodominant epitope, characterized previously; read-out: KD (dissociation constant); cited from earlier work
[4] = 18-hour incubation with peptide, 23° C., antibody Y3, median fluorescence normalized to SIINFEKL
[5] = read-out: KD (dissociation constant)

Row | Compound | pKd (K^b [1]) | FACS Analysis % SIINFEKL (relative amount of K^b on cell surface) [2, 4] | pKd (K^b [3]) | pKd (K^b [1]; [5]) | FACS Analysis % SIINFEKL (relative amount of K^b on cell surface) [2]
1 | DHPFLFCI [Peptide 10] | 4.33 | 38 % SIINFEKL | – | – | –
2 | GTMSMLVL [Peptide 8] | 5.92 | 0 % SIINFEKL | – | – | –
3 | ASEKMKIL [Peptide 9] | 3.26 | 4 % SIINFEKL | – | – | –
4 | DVYSFSLA [Peptide 7] | 7.15 | 65 % SIINFEKL | – | – | –
5 | SALAMVYL [Peptide 2] | 8.15 | 100 % SIINFEKL | – | – | –
6 | RGDKLPGFG [Peptide 6] | 3.26 | 30 % SIINFEKL | – | – | –
7 | NAIVFKGL [Peptide 4] | 7.89 | 76 % SIINFEKL | – | – | –
8 | KVVRFDKL [Peptide 5] | 7.59 | 94 % SIINFEKL | – | – | –
9 | CC[C@H](C)[C@H](NC(=O)[C@@H](NC(=O)[C@@H](N)CO)[C@@H](C)CC)C(=O)N[C@@H](CC(N)=O)C(=O)N[C@@H](Cc1ccccc1)C(=O)N[C@@H](CCC(=O)O)C(=O)N[C@@H](CCCCN)C(=O)N[C@@H](CC(C)C)C(=O)O [Peptide 1, reference compound] | – | 100 % SIINFEKL | 8.52 | – | –
10 | RGYVYQGL [VSV8, reference compound] | – | – | – | 8.39 | –
11 | ENIFYCPI [Peptide 11] | – | – | – | 7.03 | 77
12 | AEERYPIL [Peptide 3] | 4.17 | 42 % SIINFEKL | – | – | –
